# Assay results reported in publication PMC5926202, “Creation of a nanoformulated cabotegravir prodrug with improved antiretroviral profiles” (Biomaterials, 2017).
# What was measured:
# [1] = Solubility test in water and 1-octanol; assay type: physicochemical; details: room temperature; for solubility at 24 h: water, thermodynamic from solid, 24 h mixing
# Procedure: The solubilities of CAB and MCAB in water and 1-octanol were determined by adding excess drug to each solution at room temperature then mixing for 24 h. Samples were centrifuged at 20,000 × g for 10 min to pellet insoluble drug. The supernatants containing solubilized drug were vacuum-dried then re-dispersed in methanol for drug concentration measurement using a Waters ACQUITY ultra performance liquid chromatography (UPLC) H-Class System with TUV detector and Empower 3 software (Milford, MA, USA). […] Drug content was quantitated by comparison of peak area to those of known standards (0.05–50 µg/mL in methanol).
# [2] = test system: HIV-1ADA in human monocyte derived macrophages (MDM); experiment: Antiretroviral activity of CAB and MCAB in HIV-1ADA infected MDM (HIV RT activity); assay type: cell-based; details: Human immunodeficiency virus 1, 168 h, HIV-1ADA MOI 0.1, MDM, 7 days after challenge
# Procedure: (E) Antiretroviral activities of CAB and MCAB were evaluated in HIV-1ADA infected human monocyte derived macrophages (MDM). Inhibition rate was presented as percentage of reduced HIV reverse transcriptase (RT) activity as compared to positive control RT activity. Nonlinear regression was performed using log (drug concentration) vs. Inhibition rate with variable slope, and drug concentration for 50% inhibition (IC50) was calculated. […] Data are expressed as mean ± SD for n= 6 samples per group.
# Monocyte-derived macrophages (MDM) were utilized. […] Briefly, monocytes were obtained by leukapheresis of HIV-1/2 and hepatitis B seronegative donor blood cells, followed by purification via countercurrent centrifugal elutriation. Elutriated monocytes were cultured as adherent cells in DMEM supplemented with 10% heat-inactivated pooled human serum, 10 µg/mL ciprofloxacin, 50 µg/mL gentamicin, and 1000 U/mL recombinant macrophage colony stimulating factor. Cells were maintained at 37 °C in a 5% CO2 incubator. Seven days later, differentiated macrophages were treated with various concentrations (0.06–1000 nM) of native CAB or MCAB for 30 min, followed by HIV-1ADA challenge at a multiplicity of infection (MOI) of 0.1 infectious viral particles/cell. […]
# HIV = details: cited from earlier work
# [3] = long-acting parenteral; cited from earlier work
increase in 1-octanol solubility compared to CAB [1] [fold],SMILES,solubility at 24 h [1] [µg/mL],IC50 [2] [nM],4 × PA-IC90 (HIV; 4 times protein-binding-adjusted 90% inhibitory concentration ref 19-22) [µg/mL],PA-IC90 (HIV; protein-binding-adjusted ref 24) [µg/mL],half-life [3]
,"C[C@H]1CO[C@@H]2Cn3cc(C(=O)NCc4ccc(F)cc4F)c(=O)c(O)c3C(=O)N12 [CAB, cabotegravir]",31.9 ± 14.4,2.5,0.66,0.166,up to 54 days
30,CCCCCCCCCCCCCC(=O)Oc1c2n(cc(C(=O)NCc3ccc(F)cc3F)c1=O)CC1OCC(C)N1C2=O (centres unmarked) [MCAB],5.6 ± 1.8,3.4,,,
